Reference: patent publication US9573953B2, “Heteroaromatic compounds as PI3 kinase modulators and methods of use” (CALITOR SCIENCES, LLC, priority 2013, dated 2017)

How the values were obtained:
[1] = Compound stability in human liver microsomes; type: in vitro ADME; conditions: for half-life at 5 μM / CLint scaled at 5 μM: pH 7.4; for CLint scaled at 5 μM: human liver microsomes, in vivo CLint extrapolated
Procedure: Human or rat liver microsomes incubations were conducted in duplicate in polypropylene tubes. The typical incubation mixtures consisted of human or rat liver microsomes (0.5 mg protein/mL), compounds of interest (5 μM) and NADPH (1.0 mM) in a total volume of 200 μL potassium phosphate buffer (PBS, 100 mM, pH=7.4). Compounds were dissolved in DMSO and diluted with PBS such that the final concentration of DMSO was 0.05%. The enzymatic reactions were commenced with the addition of protein after a 3-min preincubation and incubated in a water bath open to the air at 37° C. Reactions were terminated at various time points (0, 5, 10, 15, 30, 60 min) by adding equal volume of ice-cold acetonitrile. The samples were stored at −80° C. until LC/MS/MS assays.
The concentrations of compounds in the incubation mixtures of human or rat liver microsomes were determined by a LC/MS/MS method. The ranges of the linearity in the concentration range were determined for each tested compounds.
A parallel incubation was performed using denatured microsomes as the negative control, and reactions were terminated at various time points (0, 15, 60 min) after incubation at 37° C.
Dextromethorphan (70 μM) was selected as the positive control, and reactions were terminated at various time points (0, 5, 10, 15, 30, 60 min) after incubation at 37° C. Both positive and negative control samples were included in each assay to ensure the integrity of the microsomal incubation system.
The concentrations of compounds in human or rat liver microsome incubations were plotted as a percentage of the relevant zero time point control for each reaction. The in vivo CLint were extrapolated (ref.: Naritomi Y, Terashita S, Kimura S, Suzuki A, Kagayama A, Sugiyama Y. “Prediction of human hepatic clearance from in vivo animal experiments and in vitro metabolic studies with liver microsomes from animals and humans”, Drug Metabolism and Disposition, 2001, 29, 1316-1324).

[2] = Pharmacokinetic profiles in rats; type: in vivo; conditions: for F: iv dose 2 mg/kg, oral dose generally 5 or 10 mg/kg; for Cl/F / AUC(0-t) / half-life / Vd: iv dosing, 2 mg/kg; for AUC(0-t) / half-life / Vd: rat, plasma; for Vd: read-out: Vss
Procedure: The compounds disclosed herein are assessed in pharmacokinetic studies in mice, rats, dogs or monkeys. The compounds are administered as a water solution, 2% HPMC+1% TWEEN®80 in water solution, 5% DMSO+5% solutol in saline, 4% MC suspension or capsule. For the intravenous administration, the animals are generally given at 1 or 2 mg/kg dose. For the oral (p.o.) dosing, mice and rats are generally given 5 or 10 mg/kg dose, and dogs and monkeys are generally given 10 mg/kg dose. The blood samples (0.3 mL) are drawn at 0.25, 0.5, 1.0, 2.0, 3.0, 4.0, 6.0, 8.0, 12 and 24 h time points or 0.083, 0.25, 0.5, 1.0, 2.0, 4.0, 6.0, 8.0 and 24 h time points and centrifuged at 3,000 or 4000 rpm for 2 to 10 min. The plasma solutions are collected and stored at −20° C. or −70° C. until analyzed by LC/MS/MS as described above.

[3] = target: T1, mTOR (h) (Homo sapiens, UniProt P42345); experiment: mTOR (h) kinase assay; type: biochemical
T1 construct: purchased Millipore UK Ltd (assays run there as a service)
Procedure: mTOR (h) is incubated with 50 mM HEPES pH 7.5, 1 mM EDTA, 0.01% TWEEN®20, 2 mg/mL substrate, 3 mM Manganese Chloride and [γ-^33P-ATP] (specific activity approx. 500 cpm/pmol, concentration as required). The reaction is initiated by the addition of the MnATP mix. After incubation for 40 minutes at room temperature, the reaction is stopped by the addition of 3% phosphoric acid solution. Aliquote of the reaction (10 μL) is then spotted onto a P30 filtermat and washed three times for 5 minutes in 75 mM phosphoric acid and once in methanol prior to drying and scintillation counting.
(§1) The kinase assays described herein were performed at Millipore UK Ltd, Dundee Technology Park, Dundee DD2 1SW, UK.

[4] = target: T2, PI3K (p110δ/p85α) (h) (Homo sapiens, UniProt O00329); experiment: PI3K (p110δ/p85α) (h) non-radioactive (HTRF) assay; type: biochemical
T2 construct: purchased Millipore UK Ltd (assays run there as a service)
Procedure: PI3K (p110δ/p85α) (h) [Non-Radioactive Assay]
PI3K (p110δ/p85α) (h) is incubated in assay buffer containing 10 μM phosphatidylinositol-4,5-bisphosphate and MgATP (concentration as required). The reaction is initiated by the addition of the MgATP mix. After incubation for 30 minutes at room temperature, the reaction is stopped by the addition of stop solution containing EDTA and biotinylated phosphatidylinositol-3,4,5-trisphosphate. Finally, detection buffer is added, which contains europium-labelled anti-GST monoclonal antibody, GST-tagged GRP1 PH domain and streptavidin-allophycocyanin. The plate is then read in time-resolved fluorescence mode and the homogenous time-resolved fluorescence (HTRF) signal is determined according to the formula HTRF=10000×(Em665 nm/Em620 nm).
as §1

[5] = system: U87MG glioblastoma cells; experiment: Tumor xenograft model (U87MG), tumor growth inhibition; type: in vivo, mice; conditions: oral gavage
Procedure: The efficacy of compounds disclosed herein was evaluated in a standard murine model of tumorigenesis. Human tumor cells (U87MG glioblastoma cells from ATCC) were expended in culture, harvested, and injected subcutaneously onto the rear flank of 6-7 week old female athymic nude mice (BALB/cA nu/nu, Hunan SLAC Laboratory Animal, Co.) (n=6-10 for vehicle group and for each dosing group). When tumors reached a volume of 100-250 mm^3, animals were randomly divided into vehicle control (for example, 5% DMSO+70% CAPTISOL® (30%), 7% HCl (pH1), 18% CAPTISOL® (30%); or 7% DMSO, 7% HCl (pH1), 70% CAPTISOL® (30%), 16% CAPTISOL® (30%), or the like) and compound groups. Subsequent administration of compound by oral gavage begins anywhere from day 0 to day 15 post tumor cell challenge and generally continues with once a day for the duration of the experiment.
Progression of tumor growth is assessed by tumor volumes and recorded as a function of time. The long (L) and short (W) axes of the subcutaneous tumors were measured with calipers twice weekly, and the tumor volume (TV) calculated as (L×W^2)/2). TGI was calculated from the difference between the median tumor volumes of vehicle-treated and drug-treated mice, expressed as a percentage of the median tumor volume of the vehicle-treated control group, by the following relation:
Initial statistical analysis is done by repeated measures analysis of variance (RMANOVA), followed by Scheffe post hoc testing for multiple comparisons. Vehicle alone (5% DMSO+70% CAPTISOL® (30%), 7% HCl (pH1), 18% CAPTISOL® (30%); or 7% DMSO, 7% HCl (pH1), 70% CAPTISOL® (30%), 16% CAPTISOL® (30%), or the like) is the negative control.

[6] = human liver microsomes 0.5 mg protein/mL, compound 5 μM, NADPH, 37° C.

T2 sequence (O00329 whole entry): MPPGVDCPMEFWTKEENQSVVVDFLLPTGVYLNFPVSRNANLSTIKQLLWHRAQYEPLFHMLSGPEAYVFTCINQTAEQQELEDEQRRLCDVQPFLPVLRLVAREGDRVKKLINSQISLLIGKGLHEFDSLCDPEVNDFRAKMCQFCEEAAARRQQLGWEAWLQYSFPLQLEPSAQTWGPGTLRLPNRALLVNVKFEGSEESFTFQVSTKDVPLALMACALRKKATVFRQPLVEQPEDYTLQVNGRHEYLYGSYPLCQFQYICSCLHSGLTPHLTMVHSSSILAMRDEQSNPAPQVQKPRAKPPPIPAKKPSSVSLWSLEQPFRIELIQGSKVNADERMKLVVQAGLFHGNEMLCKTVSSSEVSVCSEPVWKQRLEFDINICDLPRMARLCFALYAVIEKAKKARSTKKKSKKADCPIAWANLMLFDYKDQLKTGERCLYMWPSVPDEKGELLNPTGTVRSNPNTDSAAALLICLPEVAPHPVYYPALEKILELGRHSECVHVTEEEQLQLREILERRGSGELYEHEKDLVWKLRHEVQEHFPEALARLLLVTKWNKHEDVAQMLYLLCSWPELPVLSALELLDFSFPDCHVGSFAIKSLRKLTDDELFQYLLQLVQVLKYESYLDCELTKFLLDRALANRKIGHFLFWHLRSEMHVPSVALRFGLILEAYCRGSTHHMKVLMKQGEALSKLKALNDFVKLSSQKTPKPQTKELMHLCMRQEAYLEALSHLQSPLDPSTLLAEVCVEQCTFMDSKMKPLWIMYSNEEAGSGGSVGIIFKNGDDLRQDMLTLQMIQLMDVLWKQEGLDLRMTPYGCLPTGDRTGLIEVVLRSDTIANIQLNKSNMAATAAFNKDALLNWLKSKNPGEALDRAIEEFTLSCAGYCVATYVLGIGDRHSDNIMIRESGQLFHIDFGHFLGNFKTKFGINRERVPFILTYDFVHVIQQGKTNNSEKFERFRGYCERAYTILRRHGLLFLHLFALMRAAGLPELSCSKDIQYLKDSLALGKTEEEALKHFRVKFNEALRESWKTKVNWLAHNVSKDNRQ
T2 sequence (P27986 whole entry partner): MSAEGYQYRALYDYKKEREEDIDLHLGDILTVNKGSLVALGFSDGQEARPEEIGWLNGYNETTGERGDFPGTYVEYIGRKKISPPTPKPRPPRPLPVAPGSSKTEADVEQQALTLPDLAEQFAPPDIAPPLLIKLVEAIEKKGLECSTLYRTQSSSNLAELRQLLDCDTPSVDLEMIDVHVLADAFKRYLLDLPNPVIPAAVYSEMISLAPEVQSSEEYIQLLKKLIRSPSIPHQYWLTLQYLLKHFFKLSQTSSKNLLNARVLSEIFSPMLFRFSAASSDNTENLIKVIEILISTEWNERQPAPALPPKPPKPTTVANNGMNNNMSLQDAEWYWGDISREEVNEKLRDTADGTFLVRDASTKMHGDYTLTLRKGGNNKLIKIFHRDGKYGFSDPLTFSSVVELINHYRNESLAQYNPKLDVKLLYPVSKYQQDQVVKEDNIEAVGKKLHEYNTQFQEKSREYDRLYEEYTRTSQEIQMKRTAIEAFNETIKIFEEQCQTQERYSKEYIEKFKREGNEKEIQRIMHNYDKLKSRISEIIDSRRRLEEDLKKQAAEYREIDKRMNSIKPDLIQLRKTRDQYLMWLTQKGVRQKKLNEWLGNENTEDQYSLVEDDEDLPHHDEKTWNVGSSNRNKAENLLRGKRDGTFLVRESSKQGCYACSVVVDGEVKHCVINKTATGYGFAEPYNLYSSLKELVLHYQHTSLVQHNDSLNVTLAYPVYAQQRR

Row | SMILES | half-life at 5 μM [1, 6] | CLint scaled at 5 μM [1] | F [2] | Cl/F [2] | AUC(0-t) [2] | half-life [2] | Vd [2] | IC50 [3] | IC50 [4] | TGI % U87MG ([5]; 1 mg/kg, 12 days) | TGI % U87MG ([5]; 3 mg/kg, 12 days) | TGI % U87MG ([5]; 10 mg/kg, 12 days) | TGI % U87MG ([5]; 0.3 mg/kg, 13 days) | TGI % U87MG ([5]; 1 mg/kg, 13 days) | TGI % U87MG ([5]; 3 mg/kg, 13 days) | TGI % U87MG ([5]; 10 mg/kg, 13 days) | T1/2 [1, 6]
1 | COc1ncc(-c2ccn3ncc(C#CCO)c3n2)cc1NS(=O)(=O)c1ccc(F)cc1F [Ex. 1, 2,4-difluoro-N-(5-(3-(3-hydroxyprop-1-yn-1-yl)pyrazolo[1,5-a]pyrimidin-5-yl)-2-methoxypyridin-3-yl)benzenesulfonamide] | 11.8 h | 2.45 mL/min/kg | 102.00% | 2.83 mL/min/kg | 12100 ng·h/mL | 3.93 h | 0.32 L/kg | 9 nM | 5 nM | 26% | 37% | 68% |  |  |  |  | 
2 | COc1ncc(-c2ccn3ncc(C#N)c3c2)cc1NS(=O)(=O)c1ccc(F)cc1F [Ex. 3, N-(5-(3-cyanopyrazolo[1,5-a]pyridin-5-yl)-2-methoxypyridin-3-yl)-2,4-difluorobenzenesulfonamide] | 40.1 h | 0.72 mL/min/kg | 94.75% | 4.83 mL/min/kg | 7070 ng·h/mL | 2.77 h | 0.85 L/kg | 4 nM | 2 nM |  |  |  | 26% | 70% | 95% |  | 
3 | COc1ncc(-c2ccn3ncc(C#CCO)c3c2)cc1NS(=O)(=O)c1ccc(F)cc1F [Ex. 4, 2,4-difluoro-N-(5-(3-(3-hydroxyprop-1-yn-1-yl)pyrazolo[1,5-a]pyridin-5-yl)-2-methoxypyridin-3-yl)benzenesulfonamide] | 4.99 h | 5.81 mL/min/kg | 91.75% | 4.67 mL/min/kg | 7350 ng·h/mL | 1.93 h | 0.48 L/kg | 4 nM | 1 nM |  |  |  |  | 32% | 53% | 89% | 
4 | COc1ncc(-c2ccn3ncc(C#N)c3n2)cc1NS(=O)(=O)c1ccc(F)cc1F [Ex. 2, N-(5-(3-cyanopyrazolo[1,5-a]pyrimidin-5-yl)-2-methoxypyridin-3-yl)-2,4-difluorobenzenesulfonamide] |  |  | 69.48% | 4.33 mL/min/kg | 7720 ng·h/mL | 3.7 h | 0.8 L/kg | 4 nM | 5 nM | 59% | 76% |  |  |  |  |  | ∞
